Measurements: patent EP4509511A1, “SUBSTITUTED SPIRO-ISOXAZOLINYL LACTAMS, SALTS THEREOF AND THEIR USE AS HERBICIDALLY ACTIVE SUBSTANCES” (Bayer Aktiengesellschaft, priority 2023, dated 2025)

Assays:
AMARE = experiment: Herbicidal post-emergence action - Part I; assay type: in vivo, Amaranthus retroflexus; settings: one-leaf stage, rated visually after about 3 weeks vs untreated controls
Summary of the method: (§1)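 Greenhouse weeds grown in sandy loam were sprayed post-emergence at the one-leaf stage, 2-3 weeks after sowing. Compounds were applied as WP or EC in water with 0.5% additive at 600 L/ha, at 1280 g/ha or below. Visual damage was rated after about 3 weeks versus untreated plants (0-100%).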

POAAN [1] = experiment: Herbicidal post-emergence action - Part I; assay type: in vivo, Poa annua; settings: 1280 g/ha, one-leaf stage, rated visually after about 3 weeks vs untreated controls
Summary of the method: as §1

SETVI = experiment: Herbicidal post-emergence action - Part II; assay type: in vivo, Setaria viridis; settings: 320 g/ha; Table E7c
Summary of the method: (§2)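 Post-emergence greenhouse test: weeds and crops in sandy loam sprayed at single-leaf stage, 2–3 weeks after sowing, with WP or EC formulations in water plus 0.5% additive at 600 l water/ha. Rates 320 g/ha or below. Visual rating after ca. 3 weeks versus untreated controls, % effect (100% = plants dead).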

DIGSA = experiment: Herbicidal pre-emergence action - Part I; assay type: in vivo, Digitaria sanguinalis; settings: visual grading after ca. 3 weeks vs untreated controls
Summary of the method: (§3)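 In this greenhouse pre-emergence test, formulated compounds with 0.5% additive were applied at 1280 g/ha or below onto the soil covering sown weed seeds in sandy loam. After roughly three weeks, plant damage was scored by eye in percent versus untreated controls.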

VIOTR = experiment: Herbicidal pre-emergence action - Part II; assay type: in vivo, Viola tricolor
Description: Seeds of mono- and dicotyledonous weed plants and crop plants were sown, in plastic or organic planting pots, in sandy loam and covered with soil. The compounds according to the invention, formulated in the form of wettable powders (WP) or as emulsifiable concentrates (EC), were applied to the surface of the covering soil as aqueous suspension or emulsion, with the addition of 0.5% of an additive, at an application rate of 600 1 of water/ha (converted). Following treatment, the pots were placed in a greenhouse and kept under optimum growth conditions for the test plants. The visual grading of the damage to the test plants was carried out after ca. 3 weeks in comparison to untreated controls (herbicidal effect in percent (%): 100% effect = plants have died off, 0% effect = as control plants). Tables C1 to C12 below show the effects of selected compounds of the general formula (I) according to table 1 on various harmful plants and an application rate corresponding to 320 g/ha or below obtained by the experimental procedure mentioned above. Table C1: pre-emergence activity at 320g/ha against ABUTH in %

POAAN [2] = experiment: Herbicidal pre-emergence action - Part I; assay type: in vivo, Poa annua; settings: visual grading after ca. 3 weeks vs untreated controls
Summary of the method: as §3

VERPE [3] = experiment: Herbicidal post-emergence action - Part II; assay type: in vivo, Veronica persica
Summary of the method: as §2

ALOMY = experiment: Herbicidal pre-emergence action - Part I; assay type: in vivo, Alopecurus myosuroides; settings: visual grading after ca. 3 weeks vs untreated controls
Description: (§4) Seeds of mono- and dicotyledonous weed plants were sown in plastic pots (double sowings with one species of mono- and one species of dicotyledonous weed plants per pot), in sandy loam, and covered with soil. The compounds according to the invention, formulated in the form of wettable powders (WP) or as emulsifiable concentrates (EC), were applied to the surface of the covering soil as aqueous suspension or emulsion, with the addition of 0.5% of an additive, at an application rate of 600 1 of water per hectare (converted). Following treatment, the pots were placed in a greenhouse and kept under optimum growth conditions for the test plants. The visual grading of the damage to the test plants was carried out after ca. 3 weeks in comparison to untreated controls (herbicidaleffectinpercent(%):100%effect=plantshavediedoff,0%effect=ascontrolplants). [formula]
(§5) Tables A1 to A12, below, show the effects of selected compounds of the general formula (I) according to table 1 on various harmful plants and an application rate corresponding to 1280 g/ha or below obtained by the experimental procedure mentioned above. Table A1: pre-emergence activity at 1280g/ha against ABUTH in %

VERPE [4] = experiment: Herbicidal post-emergence action - Part I; assay type: in vivo, Veronica persica; settings: one-leaf stage, rated visually after about 3 weeks vs untreated controls
Summary of the method: as §1

BRSNW = experiment: Pre-emergence effects on crop plants; assay type: in vivo, Brassica napus; settings: 80 g/ha; Table D5; crop plant
Description: Seeds of mono- and dicotyledonous weed plants and crop plants were sown, in plastic or organic planting pots, in sandy loam and covered with soil. The compounds according to the invention, formulated in the form of wettable powders (WP) or as emulsifiable concentrates (EC), were applied to the surface of the covering soil as aqueous suspension or emulsion, with the addition of 0.5% of an additive, at an application rate of 600 1 of water/ha (converted). Following treatment, the pots were placed in a greenhouse and kept under optimum growth conditions for the test plants. The visual grading of the damage to the test plants was carried out after ca. 3 weeks in comparison to untreated controls (herbicidal effect in percent (%): 100% effect = plants have died off, 0% effect = as control plants). Tables D1 to D5 below show the effects of various compounds of the general formula (I) according to Table 1 on various crop plants and an application rate corresponding to 320 g/ha or below obtained by the experimental procedure mentioned above in Biological Examples, Section C. Table […]: pre-emergence activity at 320g/ha against ZEAMX in %

VERPE [5] = experiment: Herbicidal pre-emergence action - Part I; assay type: in vivo, Veronica persica; settings: visual grading after ca. 3 weeks vs untreated controls
Description: as §4, §5

Row | SMILES | post-emergence activity at 1280g/ha against AMARE in % (AMARE) | post-emergence activity at 1280g/ha against POAAN in % (POAAN [1]) | post-emergence activity against SETVI (SETVI) | pre-emergence activity at 320g/ha against DIGSA in % (DIGSA; 320 g/ha) | pre-emergence activity at 1280g/ha against DIGSA in % (DIGSA; 1280 g/ha) | pre-emergence activity against VIOTR (VIOTR; 80 g/ha, Table C12b) | pre-emergence activity against VIOTR (VIOTR; 320 g/ha, Table C12a) | pre-emergence activity at 80g/ha and against POAAN in % (POAAN [2]; 80 g/ha) | pre-emergence activity at 320g/ha and against POAAN in % (POAAN [2]) | pre-emergence activity at 1280g/ha and against POAAN in % (POAAN [2]) | post-emergence activity against VERPE (VERPE [3]; 80 g/ha, Table E8c) | post-emergence activity against VERPE (VERPE [3]; 320 g/ha, Table E8d) | pre-emergence activity at 1280g/ha against ALOMY in % (ALOMY) | post-emergence activity at 320g/ha against VERPE in % (VERPE [4]; 320 g/ha) | post-emergence activity at 1280g/ha against VERPE in % (VERPE [4]; 1280 g/ha) | pre-emergence activity against BRSNW (BRSNW) | pre-emergence activity at 1280g/ha against VERPE in % (VERPE [5]) | post-emergence activity at 80g/ha against AMARE in % (AMARE; 80 g/ha) | post-emergence activity at 320g/ha against AMARE in % (AMARE; 320 g/ha)
1 | Cc1ccsc1C1=NOC2(CCCN(Cc3c(F)cccc3F)C2=O)C1 (racemic) [Compound I-2] | 90% | 90% | 90% | 100% | 100% | 90% | 90% | 100% | 100% | 100% | 90% | 90% | 90% | 90% | 90% | – | – | – | –
2 | Cc1ccsc1C1=NOC2(CCN(Cc3c(F)cccc3F)C2=O)C1 (racemic) [Compound I-16, 7-(2,6-Difluorobenzyl)-3-(3-methyl-2-thienyl)-1-oxa-2,7-diazaspiro[4.4]non-2-en-6-one] | – | 90% | – | – | – | – | – | – | 100% | 100% | – | – | 90% | – | – | 20% | 100% | – | –
3 | O=C1N(Cc2ccccc2F)CCC12CC(c1c(F)cccc1F)=NO2 (racemic) [Compound I-10] | 90% | – | – | – | – | – | – | – | 90% | 100% | – | – | – | – | – | 20% | 90% | 90% | 90%
